Columns and labels:
Assay type in all cases: in vivo
[1] = system: cocklebur (Xanthium strumariunt, XAS); assay: Pre-emerge test, cocklebur; conditions: 250 g ai/ha, 14 days after application, rating scale 0-100 (0 no damage, 100 complete death)
Outline: (§1)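 Weed seeds in sandy loam soil mix received acetone-based spray (187 l/ha; 8–1000 g ai/ha) a day after sowing. Phytotoxicity was then read at 14 days on a scale from no damage (0) to full plant death (100).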

[2] = system: sicklepod (Cassia obtusifolia, CAO); assay: Pre-emerge test, sicklepod; conditions: 250 g ai/ha, 14 days after application, rating scale 0-100 (0 no damage, 100 complete death)
Outline: as §1

[3] = system: soybean (Glycine max L., var. Pella 86, SOY); assay: Post-emerge test, crop damage soybean
Outline: (§2)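 Emerged seedlings, usually at 2-3 leaves after 8-21 days' growth in sandy loam, were treated with 8-1000 g ai/ha. Treatment was an acetone spray at 187 l/ha containing 0.25% v/v non-ionic surfactant. Assessment at 14 days used a 0 (no damage) to 100 (total death) scale.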

[4] = system: large crabgrass (Digitaria sanguinalis, DIS); assay: Post-emerge test, large crabgrass; conditions: 250 g ai/ha, 14 days after application, rating scale 0-100 (0 no damage, 100 complete death)
Outline: as §2

[5] = system: lambsquarters (Chenopodium album, CHA); assay: Pre-emerge test, lambsquarters; conditions: 250 g ai/ha, 14 days after application, rating scale 0-100 (0 no damage, 100 complete death)
Outline: as §1

[6] = system: ivyleaf morningglory (Ipomoea hederacea, IPH); assay: Post-emerge test, ivyleaf morningglory; conditions: 250 g ai/ha, 14 days after application, rating scale 0-100 (0 no damage, 100 complete death)
Outline: as §2

[7] = system: field corn (Zea mays L., var. Dekalb 535, CORN); assay: Pre-emerge test, crop damage field corn
Outline: (§3)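 Using a track sprayer with flat fan nozzle, acetone solutions were applied at 8–1000 g ai/ha to sandy loam pots sown one day before. Plant injury was rated visually 0–100 after 14 days.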

[8] = system: ivyleaf morningglory (Ipomoea hederacea, IPH); assay: Pre-emerge test, ivyleaf morningglory; conditions: 250 g ai/ha, 14 days after application, rating scale 0-100 (0 no damage, 100 complete death)
Outline: as §1

[9] = system: soybean (Glycine max L., var. Pella 86, SOY); assay: Pre-emerge test, crop damage soybean
Outline: as §3

[10] = system: cocklebur (Xanthium strumariunt, XAS); assay: Post-emerge test, cocklebur; conditions: 250 g ai/ha, 14 days after application, rating scale 0-100 (0 no damage, 100 complete death)
Outline: as §2

[11] = system: common ragweed (Ambrosia artemisiifolia L., AML); assay: Pre-emerge test, common ragweed; conditions: 250 g ai/ha, 14 days after application, rating scale 0-100 (0 no damage, 100 complete death)
Outline: as §1

[12] = system: green foxtail (Setaria viridis, SEV); assay: Post-emerge test, green foxtail; conditions: 250 g ai/ha, 14 days after application, rating scale 0-100 (0 no damage, 100 complete death)
Outline: as §2

[13] = system: common ragweed (Ambrosia artemisiifolia L., AML); assay: Post-emerge test, common ragweed; conditions: 250 g ai/ha, 14 days after application, rating scale 0-100 (0 no damage, 100 complete death)
Outline: as §2

[14] = system: velvetleaf (Abutilon theophrasti, ABT); assay: Pre-emerge test, velvetleaf; conditions: 250 g ai/ha, 14 days after application, rating scale 0-100 (0 no damage, 100 complete death)
Outline: as §1

[15] = system: johnsongrass (Sorghum halepense, SOH); assay: Post-emerge test, johnsongrass; conditions: 250 g ai/ha, 14 days after application, rating scale 0-100 (0 no damage, 100 complete death)
Outline: as §2

[16] = system: field corn (Zea mays L., var. Dekalb 535, CORN); assay: Post-emerge test, crop damage field corn
Outline: as §2

[17] = system: lambsquarters (Chenopodium album, CHA); assay: Post-emerge test, lambsquarters; conditions: 250 g ai/ha, 14 days after application, rating scale 0-100 (0 no damage, 100 complete death)
Outline: as §2

[18] = system: large crabgrass (Digitaria sanguinalis, DIS); assay: Pre-emerge test, large crabgrass; conditions: 250 g ai/ha, 14 days after application, rating scale 0-100 (0 no damage, 100 complete death)
Outline: as §1

[19] = system: wheat (Triticum aestivum); assay: Pre-emerge test, crop damage wheat
Outline: as §3

[20] = system: redroot pigweed (Amaranthus retroflexus, AMR); assay: Pre-emerge test, redroot pigweed; conditions: 250 g ai/ha, 14 days after application, rating scale 0-100 (0 no damage, 100 complete death)
Outline: as §1

[21] = system: upland rice (Oryza sp., var.Tebonnet, RICE); assay: Post-emerge test, crop damage upland rice
Outline: as §2

[22] = system: green foxtail (Setaria viridis, SEV); assay: Pre-emerge test, green foxtail; conditions: 250 g ai/ha, 14 days after application, rating scale 0-100 (0 no damage, 100 complete death)
Outline: as §1

[23] = system: sicklepod (Cassia obtusifolia, CAO); assay: Post-emerge test, sicklepod; conditions: 250 g ai/ha, 14 days after application, rating scale 0-100 (0 no damage, 100 complete death)
Outline: as §2

[24] = system: wheat (Triticum aestivum); assay: Post-emerge test, crop damage wheat
Outline: as §2

[25] = system: barnyardgrass (Echinachloa crus-galli, ECC); assay: Post-emerge test, barnyardgrass; conditions: 250 g ai/ha, 14 days after application, rating scale 0-100 (0 no damage, 100 complete death)
Outline: as §2

[26] = system: barnyardgrass (Echinachloa crus-galli, ECC); assay: Pre-emerge test, barnyardgrass; conditions: 250 g ai/ha, 14 days after application, rating scale 0-100 (0 no damage, 100 complete death)
Outline: as §1

[27] = system: redroot pigweed (Amaranthus retroflexus, AMR); assay: Post-emerge test, redroot pigweed; conditions: 250 g ai/ha, 14 days after application, rating scale 0-100 (0 no damage, 100 complete death)
Outline: as §2

[28] = system: velvetleaf (Abutilon theophrasti, ABT); assay: Post-emerge test, velvetleaf; conditions: 250 g ai/ha, 14 days after application, rating scale 0-100 (0 no damage, 100 complete death)
Outline: as §2

[29] = system: johnsongrass (Sorghum halepense, SOH); assay: Pre-emerge test, johnsongrass; conditions: 250 g ai/ha, 14 days after application, rating scale 0-100 (0 no damage, 100 complete death)
Outline: as §1

[30] = system: upland rice (Oryza sp., var.Tebonnet, RICE); assay: Pre-emerge test, crop damage upland rice
Outline: as §3

[31] = var. Pella 86, Glycine max (soybean), in vivo, 14 days
[32] = var. Dekalb 535, Zea mays (field corn), in vivo, 14 days
[33] = Triticum aestivum (wheat), in vivo, 14 days
[34] = var. Tebonnet, Oryza sp. (upland rice), in vivo, 14 days
[35] = post-emerge, 250 g ai/ha, 14 days after application, rating scale 0-100 (0 no damage, 100 complete death)
[36] = pre-emerge, 250 g ai/ha, 14 days after application, rating scale 0-100 (0 no damage, 100 complete death)

Row | SMILES | Pre-emerge Herbicidal Activity XAS (phytotoxicity rating) [1] | Pre-emerge Herbicidal Activity CAO (phytotoxicity rating) [2] | Post-emerge Herbicidal Activity DIS (phytotoxicity rating) [4] | Pre-emerge Herbicidal Activity CHA (phytotoxicity rating) [5] | Post-emerge Herbicidal Activity IPH (phytotoxicity rating) [6] | Pre-emerge Herbicidal Activity IPH (phytotoxicity rating) [8] | Post-emerge Herbicidal Activity XAS (phytotoxicity rating) [10] | Pre-emerge Herbicidal Activity AML (phytotoxicity rating) [11] | Post-emerge Herbicidal Activity SEV (phytotoxicity rating) [12] | Post-emerge Herbicidal Activity AML (phytotoxicity rating) [13] | Pre-emerge Herbicidal Activity ABT (phytotoxicity rating) [14] | Post-emerge Herbicidal Activity SOH (phytotoxicity rating) [15] | Post-emerge Herbicidal Activity CHA (phytotoxicity rating) [17] | Pre-emerge Herbicidal Activity DIS (phytotoxicity rating) [18] | Pre-emerge Herbicidal Activity AMR (phytotoxicity rating) [20] | Pre-emerge Herbicidal Activity SEV (phytotoxicity rating) [22] | Post-emerge Herbicidal Activity CAO (phytotoxicity rating) [23] | Post-emerge Herbicidal Activity ECC (phytotoxicity rating) [25] | Pre-emerge Herbicidal Activity ECC (phytotoxicity rating) [26] | Post-emerge Herbicidal Activity AMR (phytotoxicity rating) [27] | other results
1 | Cn1nc(-c2c(F)cc3c4c2NC(=O)CN4C(=O)C(C)(C)O3)c(Cl)c1C(F)(F)F [1-52, 8-[4-Chloro-1-methyl-5-(trifluoromethyl)-1H-pyrazol-3-yl]-2,2-dimethyl-9-fluoro-5H-pyrazino[1,2,3-de]-1,4-benzoxazine-3,6(2H, 7H)-dione] | 85 | 97 | 0 | 100 | 70 | 95 | 75 | 98 | 0 | 60 | 100 | 0 | 100 | 80 | 100 | 90 | 50 | 50 | 85 | 100 | Post-emerge crop damage SOY (phytotoxicity rating) [3, 31]: 0; Pre-emerge crop damage CORN (phytotoxicity rating) [7, 32]: 50; Pre-emerge crop damage SOY (phytotoxicity rating) [9, 31]: 50; Post-emerge crop damage CORN (phytotoxicity rating) [16, 32]: 0; Pre-emerge crop damage WHEAT (phytotoxicity rating) [19, 33]: 0; Post-emerge crop damage RICE (phytotoxicity rating) [21, 34]: 0; Post-emerge crop damage WHEAT (phytotoxicity rating) [24, 33]: 0; Post-emerge Herbicidal Activity ABT (phytotoxicity rating) [28]: 100; Pre-emerge Herbicidal Activity SOH (phytotoxicity rating) [29]: 100; Pre-emerge crop damage RICE (phytotoxicity rating) [30, 34]: 0
2 | Cn1nc(-c2c(F)cc3c4c2NC(=O)C(C)(C)N4C(=O)CO3)c(Cl)c1OC(F)F [1-27] | 80 | 100 | 60 | 100 | 100 | 100 | 100 | 100 | 100 | 98 | 100 | 75 | 100 | 100 | 100 | 100 | 100 | 100 | 100 | 100 | Post-emerge crop damage SOY (phytotoxicity rating) [3, 35]: 100; Pre-emerge crop damage CORN (phytotoxicity rating) [7, 36]: 55; Pre-emerge crop damage SOY (phytotoxicity rating) [9, 36]: 35; Post-emerge crop damage CORN (phytotoxicity rating) [16, 35]: 60; Pre-emerge crop damage WHEAT (phytotoxicity rating) [19, 36]: 80; Post-emerge crop damage RICE (phytotoxicity rating) [21, 35]: 90; Post-emerge crop damage WHEAT (phytotoxicity rating) [24, 35]: 75; Post-emerge Herbicidal Activity ABT (phytotoxicity rating) [28]: 100; Pre-emerge Herbicidal Activity SOH (phytotoxicity rating) [29]: 100; Pre-emerge crop damage RICE (phytotoxicity rating) [30, 36]: 85
3 | CC1Oc2cc(F)c(-c3nn(C)c(OC(F)F)c3Cl)c3c2N(C1=O)C(C)C(=O)N3 (mixture of isomers) [1-57] | 95 | 100 | 10 | 100 | 100 | 100 | 100 | 100 | 99 | 80 | 100 | 40 | 100 | 100 | 100 | 100 | 100 | 80 | 100 | 100 | Post-emerge crop damage SOY (phytotoxicity rating) [3, 35]: 100; Pre-emerge crop damage CORN (phytotoxicity rating) [7, 36]: 50; Pre-emerge crop damage SOY (phytotoxicity rating) [9, 36]: 50; Post-emerge crop damage CORN (phytotoxicity rating) [16, 35]: 10; Pre-emerge crop damage WHEAT (phytotoxicity rating) [19, 36]: 35; Post-emerge crop damage RICE (phytotoxicity rating) [21, 35]: 65; Post-emerge crop damage WHEAT (phytotoxicity rating) [24, 35]: 50; Post-emerge Herbicidal Activity ABT (phytotoxicity rating) [28]: 100; Pre-emerge Herbicidal Activity SOH (phytotoxicity rating) [29]: 100; Pre-emerge crop damage RICE (phytotoxicity rating) [30, 36]: 65
4 | CC(C)C1C(=O)Nc2c(N3C(=O)C4=C(CCCC4)C3=O)c(F)cc3c2N1C(=O)CO3 (stereo not drawn) [1-78] | 0 | 15 | 0 | 70 | 75 | 25 | 80 | 0 | 0 | 70 | 10 | 0 | 99 | 0 | 20 | 0 | 0 | 0 | 0 | 60 | Post-emerge crop damage SOY (phytotoxicity rating) [3, 35]: 10; Pre-emerge crop damage CORN (phytotoxicity rating) [7, 36]: 0; Pre-emerge crop damage SOY (phytotoxicity rating) [9, 36]: 0; Post-emerge crop damage CORN (phytotoxicity rating) [16, 35]: 0; Pre-emerge crop damage WHEAT (phytotoxicity rating) [19, 36]: 0; Post-emerge crop damage RICE (phytotoxicity rating) [21, 35]: 60; Post-emerge crop damage WHEAT (phytotoxicity rating) [24, 35]: 50; Post-emerge Herbicidal Activity ABT (phytotoxicity rating) [28]: 0; Pre-emerge Herbicidal Activity SOH (phytotoxicity rating) [29]: 0; Pre-emerge crop damage RICE (phytotoxicity rating) [30, 36]: 0
